From PubChem BioAssay AID1963830 (Molecular Pharmacology Branch, DTP, NCI, 2024)

System: 922993-354-T-J3-PDC complex spheroid viability
Experiment: Anticancer human tumor 922993-354-T-J3-PDC patient-derived endometrial carcinoma cell line growth inhibition [POLQ]
Settings: for IC50: curve of first compound; for viability, T/C: stronger effect = lower value
How it was run: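 Three-cell-type spheroids modelling solid tumor plus stroma served as the readout system; POL inhibitors were tested individually and in combination, concentration ranges set by clinical Cmax where known.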

[1] = second compound 0.0316 µM, first compound 0.0316 µM
[2] = second compound 0.0316 µM, first compound 0.1 µM
[3] = second compound 0.0316 µM, first compound 0.316 µM
[4] = second compound 0.0316 µM, first compound 1 µM
[5] = second compound 0.0316 µM, first compound 3.16 µM
[6] = second compound 0.0316 µM, first compound 10 µM
[7] = second compound 0.1 µM, first compound 0.0316 µM
[8] = second compound 0.1 µM, first compound 0.1 µM
[9] = second compound 0.1 µM, first compound 0.316 µM
[10] = second compound 0.1 µM, first compound 1 µM
[11] = second compound 0.1 µM, first compound 3.16 µM
[12] = second compound 0.1 µM, first compound 10 µM
[13] = second compound 0.316 µM, first compound 0.0316 µM
[14] = second compound 0.316 µM, first compound 0.1 µM
[15] = second compound 0.316 µM, first compound 0.316 µM
[16] = second compound 0.316 µM, first compound 1 µM
[17] = second compound 0.316 µM, first compound 3.16 µM
[18] = second compound 0.316 µM, first compound 10 µM
[19] = second compound 1 µM, first compound 0.0316 µM
[20] = second compound 1 µM, first compound 0.1 µM
[21] = second compound 1 µM, first compound 0.316 µM
[22] = second compound 1 µM, first compound 1 µM
[23] = second compound 1 µM, first compound 3.16 µM
[24] = second compound 1 µM, first compound 10 µM
[25] = second compound 3.16 µM, first compound 0.0316 µM
[26] = second compound 3.16 µM, first compound 0.1 µM
[27] = second compound 3.16 µM, first compound 0.316 µM
[28] = second compound 3.16 µM, first compound 1 µM
[29] = second compound 3.16 µM, first compound 3.16 µM
[30] = second compound 3.16 µM, first compound 10 µM
[31] = second compound 10 µM, first compound 0.0316 µM
[32] = second compound 10 µM, first compound 0.1 µM
[33] = second compound 10 µM, first compound 0.316 µM
[34] = second compound 10 µM, first compound 1 µM
[35] = second compound 10 µM, first compound 3.16 µM
[36] = second compound 10 µM, first compound 10 µM
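Also: spheroids exposed to the agents for one week.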
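For viability, T/C in this document: 100% = DMSO vehicle control wells.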

Molecule COc1ccc([C@@H](O)c2cc(-c3ncnc4cc(N5CCOCC5)ccc34)c(F)cc2Cl)nn1 + Cc1cccc(N(C)C(=O)C2C(O)CCN2c2nc(C)cc(C(F)(F)F)c2C#N)c1 has an IC50 (second compound 0.0316 µM) of over 10 µM, an IC50 (second compound 0.1 µM) of over 10 µM and an IC50 (second compound 0.316 µM) of over 10 µM. The IC50 (second compound 1 µM) was over 10 µM, the IC50 (second compound 3.16 µM) was over 10 µM and the IC50 (second compound 10 µM) was over 10 µM. The viability, T/C [1] was 94%, the viability, T/C [2] was 85.9% and the viability, T/C [3] was 97.3%. For the same molecule, the viability, T/C [4] was 98.3%, the viability, T/C [5] was 85.4% and the viability, T/C [6] was 58.2%. For the same molecule, the viability, T/C [7] was 97.2%, the viability, T/C [8] was 99.5% and the viability, T/C [9] was 104%. For the same molecule, the viability, T/C [10] was 94.6%, the viability, T/C [11] was 81.1% and the viability, T/C [12] was 63.9%. The viability, T/C [13] was 99.9%, the viability, T/C [14] was 104% and the viability, T/C [15] was 98.5%. The viability, T/C [16] was 84.3%, the viability, T/C [17] was 82.9% and the viability, T/C [18] was 62.6%. The viability, T/C [19] was 101%, the viability, T/C [20] was 93.5% and the viability, T/C [21] was 103%. For the same molecule, the viability, T/C [22] was 103%, the viability, T/C [23] was 79% and the viability, T/C [24] was 62.7%. It also gave a viability, T/C [25] of 103%, a viability, T/C [26] of 102% and a viability, T/C [27] of 102%. The viability, T/C [28] was 86.9%, the viability, T/C [29] was 80.2% and the viability, T/C [30] was 60.5%. It also gave a viability, T/C [31] of 93.6%, a viability, T/C [32] of 95% and a viability, T/C [33] of 91.4%. The viability, T/C [34] was 83.7%, the viability, T/C [35] was 78% and the viability, T/C [36] was 57.9%.
With O=C(Nc1ccc(O)c(NS(=O)(=O)c2ccc(F)cc2)c1)c1ccc(-c2ccccc2)cc1 + Cc1cccc(N(C)C(=O)C2C(O)CCN2c2nc(C)cc(C(F)(F)F)c2C#N)c1 the IC50 (second compound 0.0316 µM) was over 10 µM, the IC50 (second compound 0.1 µM) was over 10 µM and the IC50 (second compound 0.316 µM) was over 10 µM. For the same molecule, the IC50 (second compound 1 µM) was over 10 µM, the IC50 (second compound 3.16 µM) was over 10 µM and the IC50 (second compound 10 µM) was over 10 µM. For the same molecule, the viability, T/C [1] was 106%, the viability, T/C [2] was 104% and the viability, T/C [3] was 99.2%. It also gave a viability, T/C [4] of 101%, a viability, T/C [5] of 104% and a viability, T/C [6] of 105%. The viability, T/C [7] was 104%, the viability, T/C [8] was 101% and the viability, T/C [9] was 106%. It also gave a viability, T/C [10] of 100%, a viability, T/C [11] of 104% and a viability, T/C [12] of 104%. For the same molecule, the viability, T/C [13] was 98.8%, the viability, T/C [14] was 104% and the viability, T/C [15] was 97.2%. The viability, T/C [16] was 98.6%, the viability, T/C [17] was 104% and the viability, T/C [18] was 103%. The viability, T/C [19] was 99.6%, the viability, T/C [20] was 102% and the viability, T/C [21] was 101%. It also gave a viability, T/C [22] of 102%, a viability, T/C [23] of 103% and a viability, T/C [24] of 104%. The viability, T/C [25] was 101%, the viability, T/C [26] was 101% and the viability, T/C [27] was 97.5%. For the same molecule, the viability, T/C [28] was 99.6%, the viability, T/C [29] was 94.8% and the viability, T/C [30] was 102%. It also gave a viability, T/C [31] of 98.1%, a viability, T/C [32] of 99.9% and a viability, T/C [33] of 102%. It also gave a viability, T/C [34] of 93.7%, a viability, T/C [35] of 94% and a viability, T/C [36] of 97%.
